From US8961680B2, “Solvent formulations” (TBF Environmental Technology Inc., priority 2013, dated 2015)

Key:
[1] = published value; cited from earlier work
[2] = single components, MEK, acetone; cited from earlier work
[3] = reference solvents; cited from earlier work
[4] = Evaporation rate relative to n-butyl acetate (=1); assay type: physicochemical; details: Example 2
Source text: Evaporation rates can be expressed relative to the evaporation of n-butyl acetate (=1), as a standard.

[5] = Hansen solubility parameters of blends, single components, MEK and acetone; details: MEK, acetone, δ^2 = δD^2 + δP^2 + δH^2
Source text: In some embodiments, a solvent composition according to the present disclosure includes an acetate ester, such as MA, EA, or TBAc, in combination with additional reagents to increase dispersion and decrease hydrogen bonding and/or to decrease the polarity of the composition. […] Accordingly, in some embodiments, a solvent composition according to the present disclosure may be formulated according to Hansen solubility parameters (HSP) (Hansen, 1999) and may have: a dispersion parameter (δD) between about 7.7 and about 8.5; a polarity parameter (δP) between about 4 and about 5.2; and a hydrogen bonding parameter (δH) between about 3.0 and about 3.6. Such parameters result in a Hansen Solubility Parameter (δ MPa) of about 9.0 to about 10.4, where δ^2=δD^2+δP^2+δH^2.
In alternative embodiments, a solvent composition according to the present disclosure may have: a dispersion parameter (δD) between about 7.5 and about 8; a polarity parameter (δP) between about 3 and about 4; and a hydrogen bonding parameter (δH) between about 3.2 and about 4. Such parameters result in a Hansen Solubility Parameter (δ MPa) of about 8.68 to about 9.79, where δ^2=δD^2+δP^2+δH^2. In some embodiments, a solvent composition according to the present disclosure includes a composition with HSP values similar to those of acetone. […]

[6] = cited from earlier work

For CCC(C)=O [MEK, methyl ethyl ketone, reference compound], which “published MEK ER” value [1] is on record?
The value was 4.0.

What about the “δD (dispersion)” value [2] of the same molecule?
Its value is 7.82.

And the “δH (hydrogen bonding)” value [2]?
Its value is 2.49.

What about the “δP (polarity)” value [2] of the same molecule?
The value was 4.4.

What about the flash point [3] of the same molecule?
Its flash point is −9 °C.

What about the evaporation rate [4] of the same molecule?
Its evaporation rate is 3.8.

Which results are given for CC(C)=O [Acetone, acetone, reference compound]?
δD (dispersion) [2]: 7.7; δH (hydrogen bonding) [2]: 3.5; δP (polarity) [2]: 5.2; flash point [3]: −20 °C; δ (MPa) [5]: 9.929 MPa

For CC1COC(=O)O1 (stereo not drawn) [PC, propylene carbonate], which “δD (dispersion)” value [2] is on record?
Its value is 9.8.

What about the “δH (hydrogen bonding)” value [2] of the same molecule?
The value was 2.

And the “δP (polarity)” value [2]?
Its value is 8.8.

What does the source list for CCOC(C)=O [Ethyl acetate, ethyl acetate]?
δD (dispersion) [2]: 7.7; δH (hydrogen bonding) [2]: 3.5; δP (polarity) [2]: 2.3

For FC(F)(F)c1ccc(Cl)cc1 [PCBTF, parachlorobenzotrifluoride], which “δD (dispersion)” value [2] is on record?
The value was 8.8.

And the “δH (hydrogen bonding)” value [2]?
The value was 1.9.

What about the “δP (polarity)” value [2] of the same molecule?
The value was 2.9.

Which results are given for COC(=O)OC [DMC, dimethyl carbonate]?
δD (dispersion) [2]: 8.5; δH (hydrogen bonding) [2]: 1.9; δP (polarity) [2]: 4.7

For CC(=O)OC(C)(C)C [TBA, tert-butyl acetate], which “δD (dispersion)” value [2] is on record?
The value was 7.

And the “δH (hydrogen bonding)” value [2]?
The value was 2.9.

What about the “δP (polarity)” value [2] of the same molecule?
Its value is 1.7.

And the “δ (MPa)” value [5]?
Its value is 7.765 MPa.

Which “δD (dispersion)” value [2] does the source give for COC(C)=O [Methyl acetate, methyl acetate] here?
The value was 7.58.

What about the “δH (hydrogen bonding)” value [2] of the same molecule?
The value was 3.72.

And the “δP (polarity)” value [2]?
Its value is 3.52.

What about the flash point [3] of the same molecule?
The flash point was −4 °C.

What about the solubility in water ([6]; room temperature) of the same molecule?
Its solubility in water is 25%.

And the stability ([6]; strong aqueous bases or aqueous acids)?
The stability was “not stable”.
